IC50 data for 31 molecules are collected here from US11306078B2, “Piperidine CXCR7 receptor modulators” (IDORSIA PHARMACEUTICALS LTD., priority 2016, dated 2022).

In general, IC50 refers to the midpoint of a concentration-inhibition curve. A lower IC50 goes with greater potency in that assay.

The target in this test is human chemokine receptor CXCR7 (Homo sapiens (Human), UniProt P25106). Kind of test: Tango CXCR7-bla U2OS beta-arrestin recruitment assay (beta-lactamase reporter, FRET), antagonism of CXCL12/SDF1-α.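 Further: compounds preincubated 15 min before CXCL12 addition, then 22 h at 37 °C, FRET emission ratio read with CCF4-AM substrate after 2 h.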 The note with it: antagonistic effect on CXCR7; Tango CXCR7-bla U2OS cells, CXCL12/SDF1-α at its EC80. It is filed as cell-based.
Chain of human chemokine receptor CXCR7 (P25106 whole entry): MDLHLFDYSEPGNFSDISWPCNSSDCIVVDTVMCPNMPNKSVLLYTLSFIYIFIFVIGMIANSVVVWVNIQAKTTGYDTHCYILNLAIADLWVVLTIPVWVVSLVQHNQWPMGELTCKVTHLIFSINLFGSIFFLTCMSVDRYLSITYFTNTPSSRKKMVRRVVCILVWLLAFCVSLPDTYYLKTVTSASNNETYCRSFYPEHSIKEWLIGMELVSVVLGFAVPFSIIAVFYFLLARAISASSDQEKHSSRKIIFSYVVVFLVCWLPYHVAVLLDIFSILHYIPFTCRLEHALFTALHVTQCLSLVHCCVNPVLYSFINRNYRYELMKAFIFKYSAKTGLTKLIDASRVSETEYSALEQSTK
`O=C(N[C@H]1CCN(CC2CC2)C[C@@H]1C(=O)NC1(c2ccc(F)cc2)CC1)c1cc(-c2ccc(F)cc2F)on1` [Example 4.062] yielded an IC50 of 141 nM.

Regarding `Cc1ccccc1CCNC(=O)[C@@H]1CN(C2CCCCC2)CC[C@H]1NC(=O)c1cc(-c2ccc(F)cc2F)on1` (racemic) [Example 1.056, rac-(3R*,4R*)-1-Cyclohexyl-4-{[5-(2,4-difluoro-phenyl)-isoxazole-3-carbonyl]-amino}-piperidine-3-carboxylic acid (2-o-tolyl-ethyl)-amide], inhibition was half-maximal at 4 nM (IC50).

`CN(C)C(=O)[C@@H]1CN(C2CCCC2)CC[C@H]1NC(=O)c1cc(-c2ccc(F)cc2F)on1` [Example 2.019]: the IC50 stood at 126 nM.

Molecule `CC(C1CC1)N1CC[C@@H](NC(=O)c2cc(-c3ccc(F)cc3F)on2)[C@H](C(=O)N(C)C)C1` (stereo partly shown) [Example 2.046] yielded an IC50 of 16 nM.

With `O=C(N[C@H]1CCN(CC2CC2)C[C@@H]1C(=O)NC1(c2ncccn2)CC1)c1ncc(-c2ccc(F)cc2F)o1` [Example 7.011, (3S,4S)-1-Cyclopropylmethyl-4-{[5-(2,4-difluoro-phenyl)-oxazole-2-carbonyl]-amino}-piperidine-3-carboxylic acid (1-pyrimidin-2-yl-cyclopropyl)-amide], the IC50 is 78 nM.

Regarding `C[C@@H](NC(=O)[C@@H]1CN(C2CCCCC2)CC[C@H]1NC(=O)c1cc(-c2ccc(F)cc2F)no1)C1CCC1` [Example 1.14], the midpoint of inhibition, the IC50, lay at 358 nM.

`C[C@@H]1CCC[C@H]1N1CC[C@@H](NC(=O)c2cn(-c3ccc(F)cc3F)nn2)[C@H](C(=O)N[C@H](C)c2ccccn2)C1` [Example 1.12] returned an IC50 of 789 nM.

In turn, `O=C(N[C@@H]1CCN(C2CCCCC2)C[C@H]1C(=O)NC1(c2ccccn2)CC1)c1nnc(-c2ccc(F)cc2F)o1` (racemic) [Example 3.012, rac-(3R*,4R*)-1-Cyclohexyl-4-{[5-(2,4-difluoro-phenyl)-[1,3,4]oxadiazole-2-carbonyl]-amino}-piperidine-3-carboxylic acid (1-pyridin-2-yl-cyclopropyl)-amide] registered an IC50 of 26 nM.

`O=C(N[C@@H]1CCN(C2CCCC2)C[C@H]1C(=O)NC1(c2ccccn2)CC1)c1cc(-c2ccc(F)cc2F)no1` (racemic) [Example 1.173, rac-(3R*,4R*)-1-Cyclopentyl-4-{[3-(2,4-difluoro-phenyl)-isoxazole-5-carbonyl]-amino}-piperidine-3-carboxylic acid (1-pyridin-2-yl-cyclopropyl)-amide] gave an IC50 of 110 nM.

As for `C[C@@H](NC(=O)[C@@H]1CN(CC2CC2)CC[C@H]1NC(=O)c1noc(-c2ccc(F)cc2F)n1)c1ccccn1` (relative stereo) [Example 1.158, (3R*,4R*)-1-Cyclopropylmethyl-4-{[5-(2,4-difluoro-phenyl)-[1,2,4]oxadiazole-3-carbonyl]-amino}-piperidine-3-carboxylic acid ((R)-1-pyridin-2-yl-ethyl)-amide], it took 82 nM to reach half-maximal inhibition (IC50).

On to `O=C(N[C@H]1CCN(CC2CC2)C[C@@H]1C(=O)NC1(c2ccccn2)CC1)c1cc(-c2ccc(F)cc2F)on1` [Example 4.031], for which the IC50 is 4 nM.

`C[C@@H](NC(=O)[C@@H]1CN(C2CCCC2)CC[C@H]1NC(=O)c1cc(-c2ccc(F)cc2F)no1)C1CCC1` (relative stereo) [Example 1.141, (3R*,4R*)-1-Cyclopentyl-4-{[3-(2,4-difluoro-phenyl)-isoxazole-5-carbonyl]-amino}-piperidine-3-carboxylic acid ((R)-1-cyclobutyl-ethyl)-amide] displayed an IC50 of 379 nM.

`O=C(N[C@@H]1CCN(C2CCCCC2)C[C@H]1C(=O)N1CC(F)(F)C1)c1cc(-c2ccc(F)cc2F)on1` (racemic) [Example 1.052, rac-5-(2,4-Difluoro-phenyl)-isoxazole-3-carboxylic acid [(3R*,4R*)-1-cyclohexyl-3-(3,3-difluoro-azetidine-1-carbonyl)-piperidin-4-yl]-amide] showed an IC50 of 630 nM.

Turning to `COCC(C)(C)NC(=O)[C@@H]1CN(CC2CC2)CC[C@H]1NC(=O)c1cc(-c2c(F)cc(F)cc2F)on1` (single isomer, unassigned) [Example 1.113a, (3R*,4R*)-1-Cyclopropylmethyl-4-{[5-(2,4,6-trifluoro-phenyl)-isoxazole-3-carbonyl]-amino}-piperidine-3-carboxylic acid (2-methoxy-1,1-dimethyl-ethyl)-amide], the IC50 was 561 nM.

Regarding `CN(C)C(=O)[C@@H]1CN([C@@H]2CCCC[C@H]2O)CC[C@H]1NC(=O)c1cc(-c2ccc(F)cc2F)on1` [Example 2.048], it took 501 nM to reach half-maximal inhibition (IC50).

In turn, `C[C@@H]1CC[C@H]1N1CC[C@@H](NC(=O)c2cc(-c3ccc(F)cc3F)on2)[C@H](C(=O)N(C)C)C1` [Example 2.016] had an IC50 of 80 nM.

Molecule `COCC(C)(C)NC(=O)[C@@H]1CN(C2CCCC2)CC[C@H]1NC(=O)c1cc(-c2c(F)cc(F)cc2F)on1` (racemic) [Example 1.112, rac-(3R*,4R*)-1-Cyclopentyl-4-{[5-(2,4,6-trifluoro-phenyl)-isoxazole-3-carbonyl]-amino}-piperidine-3-carboxylic acid (2-methoxy-1,1-dimethyl-ethyl)-amide] registered an IC50 of 227 nM.

In turn, `COCC(C)(C)NC(=O)[C@@H]1CN(CC2CC2)CC[C@H]1NC(=O)c1cc(-c2c(F)cc(F)cc2F)on1` (racemic) [Example 1.113, rac-(3R*,4R*)-1-Cyclopropylmethyl-4-{[5-(2,4,6-trifluoro-phenyl)-isoxazole-3-carbonyl]-amino}-piperidine-3-carboxylic acid (2-methoxy-1,1-dimethyl-ethyl)-amide] showed an IC50 of 118 nM.

For `CC(NC(=O)[C@H]1CN(C2CCCC2)CC[C@@H]1NC(=O)c1cc(-c2ccc(F)cc2F)on1)C1CCCO1` (stereo partly shown) [Example 4.037], the IC50 turned out to be 280 nM.

The molecule `C[C@@H]1CCC[C@H]1N1CC[C@@H](NC(=O)c2cc(-c3c(F)cc(F)cc3F)on2)[C@H](C(=O)N2CCC2)C1` (relative stereo) [Example 1.108, 5-(2,4,6-Trifluoro-phenyl)-isoxazole-3-carboxylic acid [(3R*,4R*)-3-(azetidine-1-carbonyl)-1-((1RS,2RS)-2-methyl-cyclopentyl)-piperidin-4-yl]-amide] showed an IC50 of 581 nM.

Turning to `CN(C)C(=O)[C@@H]1CN(C2CCC2(C)C)CC[C@H]1NC(=O)c1cc(-c2ccc(F)cc2F)on1` (stereo partly shown) [Example 2.017], half-maximal inhibition (IC50) was put at 73 nM.

For the molecule `O=C(N[C@@H]1CCN(CC2CC2)C[C@H]1C(=O)NC1(c2ccccn2)CC1)c1cc(-c2ccc(F)cc2)on1` (racemic) [Example 3.014, rac-(3R*,4R*)-1-Cyclopropylmethyl-4-{[5-(4-fluoro-phenyl)-isoxazole-3-carbonyl]-amino}-piperidine-3-carboxylic acid (1-pyridin-2-yl-cyclopropyl)-amide], the midpoint of inhibition, the IC50, lay at 158 nM.

Regarding `CC(NC(=O)[C@H]1CN(CC2CC2)CC[C@@H]1NC(=O)c1cc(-c2ccc(F)cc2F)on1)c1ncccn1` (stereo partly shown) [Example 4.080a], half-maximal inhibition (IC50) required 851 nM.

`CC(NC(=O)[C@@H]1CN(CC2CC2)CC[C@H]1NC(=O)c1cc(-c2ccc(F)cc2F)on1)c1cccc[n+]1[O-]` (stereo partly shown) [Example 2.011] returned an IC50 of 114 nM.

Take `O=C(N[C@@H]1CCN(CC2CC2)C[C@H]1C(=O)NC1(c2ccccn2)CCC1)c1cc(-c2ccc(F)cc2F)on1` (racemic) [Example 1.197, rac-(3R*,4R*)-1-Cyclopropylmethyl-4-{[5-(2,4-difluoro-phenyl)-isoxazole-3-carbonyl]-amino}-piperidine-3-carboxylic acid (1-pyridin-2-yl-cyclobutyl)-amide]: half-maximal inhibition (IC50) was put at 11 nM.

Take `Cc1cccc([C@@H](C)NC(=O)[C@@H]2CN(C3CCCCC3)CC[C@H]2NC(=O)c2cc(-c3ccc(F)cc3F)on2)n1` (single isomer, unassigned) [Example 1.188a, (3R*,4R*)-1-Cyclohexyl-4-{[5-(2,4-difluoro-phenyl)-isoxazole-3-carbonyl]-amino}-piperidine-3-carboxylic acid [(R)-1-(6-methyl-pyridin-2-yl)-ethyl]-amide]: the midpoint of inhibition, the IC50, lay at 3 nM.

On to `CN(C)C(=O)[C@@H]1CN(CC2CC2)CC[C@H]1NC(=O)c1cc(-c2ccc(F)cc2F)no1` (racemic) [Example 1.149, rac-(3R*,4R*)-1-Cyclopropylmethyl-4-{[3-(2,4-difluoro-phenyl)-isoxazole-5-carbonyl]-amino}-piperidine-3-carboxylic acid dimethylamide], for which half-maximal inhibition (IC50) required 276 nM.

Consider `O=C(N[C@@H]1CCN(CC2CC2)C[C@H]1C(=O)NC1(c2ncccn2)CC1)c1cc(-c2c(F)cccc2F)on1` (racemic) [Example 1.191, rac-(3R*,4R*)-1-Cyclopropylmethyl-4-{[5-(2,6-difluoro-phenyl)-isoxazole-3-carbonyl]-amino}-piperidine-3-carboxylic acid (1-pyrimidin-2-yl-cyclopropyl)-amide], for which the IC50 amounted to 186 nM.

In turn, `CC(C)N(C)C(=O)[C@@H]1CN(C2CCCCC2)CC[C@H]1NC(=O)c1cc(-c2ccc(F)cc2F)on1` (racemic) [Example 1.017, rac-(3R*,4R*)-1-Cyclohexyl-4-{[5-(2,4-difluoro-phenyl)-isoxazole-3-carbonyl]-amino}-piperidine-3-carboxylic acid isopropyl-methyl-amide] yielded an IC50 of 489 nM.

Take `CC(NC(=O)[C@@H]1CN(C2CCCCC2)CC[C@H]1NC(=O)c1cc(-c2ccc(F)cc2F)on1)c1ncc(F)cc1F` (relative stereo) [Example 1.086, (3R*,4R*)-1-Cyclohexyl-4-{[5-(2,4-difluoro-phenyl)-isoxazole-3-carbonyl]-amino}-piperidine-3-carboxylic acid [(1RS)-1-(3,5-difluoro-pyridin-2-yl)-ethyl]-amide]: inhibition was half-maximal at 154 nM (IC50).

In the case of `O=C(N[C@H]1CCN(CC2CC2)C[C@@H]1C(=O)NC1(c2ncccn2)CC1)c1noc(-c2ccc(F)cc2)c1F` [Example 7.001, (3S,4S)-1-Cyclopropylmethyl-4-{[4-fluoro-5-(4-fluoro-phenyl)-isoxazole-3-carbonyl]-amino}-piperidine-3-carboxylic Acid (1-pyrimidin-2-yl-cyclopropyl)-amide], the IC50 is 32 nM.
